Test results reported in paper PMC3575409, “Identification of a Novel Protein-Protein Interaction Motif Mediating Interaction of GPCR-Associated Sorting Proteins with G Protein-Coupled Receptors” (PLoS ONE, 2013).
Entries after “also recorded” stand apart in the source; their conditions may differ.

How the values were obtained:
[1] = molecular target: T1, binding of full-length ADRB2 to the central domain of GASP-1 (Homo sapiens, UniProt P07550); assay: SPR competition, ADRB2 / central domain of GASP-1; details: 1.1 µM ADRB2, GASP peptide 250 µM, control peptide up to 250 µM
T1 construct: Both ADRB2 and CNR2 full-length receptors were produced in P. pastoris and purified as previously described; implied only by the HisTrap purification; made in house; host or cells: ADRB2: Pichia pastoris; GST-GASP-1(380-1073): E. coli BL21
Protocol: (§1) The human ADRB2 and CNR2 receptors were produced using the P. pastoris expression system as previously described, [16]. After methanol-induced receptor expression, cells were washed with PBS pH 7.0 and resuspended in ice-cold buffer A (50 mM Tris-HCl pH 7.4, 500 mM NaCl, 10% glycerol, 5 mM EDTA, 1 mM PMSF, 2 mM DDT). Cells were then lysed with two cycles of 20 s shaking and 20 s cooling on ice using 0.5 mm glass beads in a FastPrep 24 device. Unbroken cells and cell debris were removed by centrifugation (3000 g, 5 min, 4°C) and the membrane fraction from the supernatant was pelleted by ultracentrifugation (100,000 g, 45 min, 4°C). Membranes were resuspended in buffer B (50 mM Tris-HCl pH 7.4, 500 mM NaCl, 10% glycerol, 1 mM PMSF, 2 mM DTT) using a Dounce homogenizer, and then successively washed with urea (buffer B with 4 M urea) and NaOH (buffer B with 10 mM NaOH), and ultracentrifuged (100,000 g, 45 min, 4°C). Finally membranes were resuspended in buffer B and quantified with the bicinchoninic acid (BCA) method (Pierce). […]
(§2) The binding curves were double referenced by (i) subtraction of the signal from the GST captured flow cell from the signal of the flow cell with captured central domain of GASP-1 and (ii) subtraction of the appropriate blank injection from the receptor injections with or without peptide. […] Endpoint responses were read 20 s after injection end. […]

[2] = molecular target: T2, binding of full-length CNR2 to the central domain of GASP-1 (Homo sapiens, UniProt P34972); assay: SPR competition, CNR2 / central domain of GASP-1; details: 0.30 µM CNR2, GASP peptide 250 µM, control peptide up to 250 µM
T2 construct: Both ADRB2 and CNR2 full-length receptors were produced in P. pastoris and purified as previously described; implied only by the HisTrap purification; made in house; host or cells: CNR2: Pichia pastoris; GST-GASP-1(380-1073): E. coli BL21
Protocol: as §1, §2

[3] = tested on: interaction between GASP-2 and GST-fused ADRB1 C-tail; assay: GST-pull down competition, GASP-2 / ADRB1 C-tail; assay type: binding
Protocol: (§3) GST-fusion proteins were immobilized on glutathione-coupled Sepharose beads (GE Healthcare) for 1 h at 4°C and incubated with [^35S]-labelled in vitro translated GASP proteins or their truncated or mutated forms in ice-cold binding buffer containing: 20 mM Tris-HCl pH 7.4, 150 mM NaCl, 1 mM EDTA, 1 mM DTT, 10% glycerol and 1% Triton X-100. The mixture was incubated for 1 h at 4°C with gentle rocking. The beads were washed five times with the same ice-cold buffer, resuspended in 30 µl SDS-PAGE sample buffer, incubated 10 min at 65°C, and pelleted for 60 s at 3000 g. The supernatants were then analyzed by SDS-PAGE, the gels were stained with Coomassie blue to visualize GST-fusion proteins, dried and analyzed using a Phosphor-imager (Personal Molecular Imager FX, Biorad) to visualize [^35S]-labelled GASPs. Quantification was performed with the Quantity One software (Biorad). GST-pull down quantification data were analyzed using GraphPad Prism 4.03 (GraphPad Software). Quantifications presented are means of at least three independent experiments.
(§4) GASP peptide or its corresponding scrambled version was incubated with GST-fused proteins and [^35S]-labelled GASPs and the binding was analyzed as described for the GST-pull down assay. […]

[4] = tested on: interaction between GASP-1 and GST-fused ADRB1 C-tail; assay: GST-pull down competition, GASP-1 / ADRB1 C-tail; assay type: binding; details: 150 µM peptide
Protocol: as §3, §4

[5] = tested on: interaction between GASP-7 and GST-fused ADRB1 C-tail; assay: GST-pull down competition, GASP-7 / ADRB1 C-tail; assay type: binding; details: 150 µM peptide
Protocol: as §3, §4

T2 sequence (P34972 whole entry, the tested form may be a part): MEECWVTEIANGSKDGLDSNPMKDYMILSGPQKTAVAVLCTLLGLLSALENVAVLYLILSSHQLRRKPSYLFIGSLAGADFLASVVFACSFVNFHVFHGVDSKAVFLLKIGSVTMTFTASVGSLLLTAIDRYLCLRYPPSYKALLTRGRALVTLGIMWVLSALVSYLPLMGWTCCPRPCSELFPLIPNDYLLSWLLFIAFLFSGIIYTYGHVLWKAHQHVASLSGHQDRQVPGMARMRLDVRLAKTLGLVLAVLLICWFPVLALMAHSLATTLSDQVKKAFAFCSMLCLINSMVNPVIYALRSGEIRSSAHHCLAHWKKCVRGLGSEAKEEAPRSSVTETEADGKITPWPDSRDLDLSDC

| Sequence | effect on binding of ADRB2 to the central domain of GASP-1 [1] | effect on binding of CNR2 to the central domain of GASP-1 [2] | effect on the interaction between GASP-2 and ADRB1 C-tail ([3]; 150 µM peptide) | effect on the interaction between GASP-2 and ADRB1 C-tail ([3]; dose-effect experiment, peptide 1 to 250 µM (scrambled: highest dose)) | effect on the interaction between GASP-1 and ADRB1 C-tail [4] | effect on the interaction between GASP-7 and ADRB1 C-tail [5] |
| --- | --- | --- | --- | --- | --- | --- |
| RVKQEPRFEEEVIIGAAAAAEKEA [control peptide, control peptide where the conserved SWFW motif was changed to AAAA] | only had a minor effect on the interaction | only had a minor effect on the interaction |  |  |  |  |
| AVEWIQEVFWEKRKPEEFGIERAS [scrambled peptide, scrambled version of GASP peptide] |  |  | did not | did not affect this interaction; also recorded: no significant effect | did not | did not |
